Converted amounts (≈) assume the structure as drawn. The source made the active and inactive calls. No cut-off for these calls is given here.
Legend:
[1] = tested on: Human alphaherpesvirus 2; assay: Antiviral activity on the replication of HSV-2 at 400 ug/mL.; format: functional, organism-based
[2] = tested on: Human alphaherpesvirus 1; assay: Antiviral activity on the replication of HSV-1 at 400 ug/mL.; format: functional, organism-based
[3] = tested on: Vesicular stomatitis virus; assay: Antiviral activity on the replication of vesicular stomatitis virus at 400 ug/mL.; format: functional, organism-based
[4] = tested on: Vaccinia virus; assay: Antiviral activity on the replication of vaccinia virus at 400 ug/mL.; format: functional, organism-based; conditions: Orthopoxvirus vaccinia
[5] = tested on: L1210/ara C; assay: Inhibition of L1210/ara C cell proliferation; format: functional; conditions: Mus musculus, read-out: ID50 (the source's name)
[6] = tested on: L1210/ara C; assay: Inhibition of L1210/arac cell proliferation at 200 ug/mL; IA means Inactive; format: functional, cell-based; conditions: Mus musculus
[7] = tested on: L1210; assay: Inhibition of L1210/0 cell proliferation; format: functional; conditions: Mus musculus, read-out: ID50 (the source's name)
[8] = tested on: L1210; assay: Cytotoxic activity against murine leukemia L1210 cells; format: functional; conditions: Mus musculus, read-out: ID50 (the source's name)
[9] = tested on: L1210; assay: Cytotoxic activity against murine leukemia L1210/deoxycytidine kinase deficient cell lines; format: functional; conditions: Mus musculus, read-out: ID50 (the source's name)
[10] = organism: Oryctolagus cuniculus; assay: Inhibition of rabbit skeletal muscle protein kinase I; format: functional

SMILES | Activity [1] | Activity [2] | Activity [3] | Activity [4] | IC50 [5] [µg/mL] | Activity [6] | IC50 [7] [µg/mL] | IC50 [8] [µg/mL] | IC50 [9] [µg/mL] | Ka [10] [µM]
CCCCc1cn(C2O[C@H](COP(=O)(O)O)[C@@H](O)[C@H]2O)c(=O)nc1N (stereo partly specified) | inactive | inactive | inactive | inactive | – | – | – | – | – | –
CC(C)c1cn([C@@H]2O[C@H](CO)[C@@H](O)[C@H]2O)c(=O)nc1N | – | – | – | – | 39 (≈ 137 µM) | inactive | 35 (≈ 123 µM) | – | – | –
CCCc1cn(C2O[C@H](COP(=O)(O)O)[C@@H](O)[C@H]2O)c(=O)nc1N (stereo partly specified) | inactive | inactive | inactive | inactive | – | – | – | – | – | –
Cc1cn([C@@H]2O[C@@H]3COP(=O)(O)O[C@H]3[C@H]2O)c(=O)nc1N.N | inactive | inactive | inactive | inactive | – | – | – | > 200 | > 200 | –
CCCCCCCCc1cn(C2O[C@H](COP(=O)(O)O)[C@@H](O)[C@H]2O)c(=O)nc1N (stereo partly specified) | inactive | inactive | inactive | inactive | – | – | – | – | – | –
CCCCc1cn([C@@H]2O[C@@H]3COP(=O)(O)O[C@H]3[C@H]2O)c(=O)nc1N.N | inactive | inactive | inactive | inactive | – | – | – | > 200 | > 200 | 0.8
CCCCCCc1cn([C@@H]2O[C@@H]3COP(=O)(O)O[C@H]3[C@H]2O)c(=O)nc1N.N | inactive | inactive | inactive | inactive | – | – | – | > 200 | > 200 | 0.8
CCCCCCc1cn(C2O[C@H](COP(=O)(O)O)[C@@H](O)[C@H]2O)c(=O)nc1N (stereo partly specified) | inactive | inactive | inactive | inactive | – | – | – | – | – | –
CC(C)c1cn([C@@H]2O[C@@H]3COP(=O)(O)O[C@H]3[C@H]2O)c(=O)nc1N.N | inactive | inactive | inactive | inactive | – | – | – | > 200 | > 200 | 0.8
CCCCCCCCc1cn([C@@H]2O[C@@H]3COP(=O)(O)O[C@H]3[C@H]2O)c(=O)nc1N.N | inactive | inactive | inactive | inactive | – | – | – | > 200 | > 200 | 0.8
CCCCCc1cn(C2O[C@H](COP(=O)(O)O)[C@@H](O)[C@H]2O)c(=O)nc1N (stereo partly specified) | inactive | inactive | inactive | inactive | – | – | – | – | – | –
CC(C)c1cn(C2O[C@H](COP(=O)(O)O)[C@@H](O)[C@H]2O)c(=O)nc1N (stereo partly specified) | inactive | inactive | inactive | inactive | – | – | – | – | – | –
CCCCCCCCc1cnc(O)nc1N | – | – | – | – | – | inactive | 190 (≈ 851 µM) | – | – | –
CCc1cn(C2O[C@H](COP(=O)(O)O)[C@@H](O)[C@H]2O)c(=O)nc1N (stereo partly specified) | inactive | inactive | inactive | inactive | – | – | – | – | – | –
Nc1ccn([C@@H]2O[C@H](COP(=O)(O)O)[C@@H](O)[C@H]2O)c(=O)n1 | – | – | – | – | – | inactive | 43 (≈ 133 µM) | – | – | –
Cc1cn([C@@H]2O[C@H](CO)[C@@H](O)[C@H]2O)c(=O)nc1N | – | – | – | – | – | inactive | 94 (≈ 365 µM) | – | – | –
CCc1cn([C@@H]2O[C@@H]3COP(=O)(O)O[C@H]3[C@H]2O)c(=O)nc1N.N | inactive | inactive | inactive | inactive | – | – | – | > 200 | > 200 | 0.8
Nc1ccn([C@@H]2O[C@@H]3COP(=O)(O)O[C@H]3[C@H]2O)c(=O)n1 | – | – | – | – | – | – | 43 (≈ 141 µM) | – | – | 0.03
Cc1cn([C@@H]2O[C@H](COP(=O)(O)O)[C@@H](O)[C@H]2O)c(=O)nc1N | inactive | inactive | inactive | inactive | – | inactive | 162 (≈ 480 µM) | – | – | –

Source: ChEMBL document CHEMBL1124664, “Synthesis and cytostatic and antiviral activities of 1-beta-D-ribofuranosyl-5-alkylcytosine (5-alkylcytidine) cyclic 3',5'-monophosphates” (1989)
